This is an account of results in patent publication US12552806B2, “Androgen receptor regulation by small molecule enantiomers” (University of Southern California, priority 2020, dated 2026).

Like-named read-outs stand apart in the source and are kept apart here.

Experiment [1] concerns the target T1, AR T878A (Homo sapiens, UniProt P10275, T878A).
T1 construct: LNCaP cells expressing AR T878A; endogenous in cells; host or cells: LNCaP-luc (LNCaP stably carrying the Cignal Lenti AR Reporter)
T1 sequence (P10275 1-920 T878A): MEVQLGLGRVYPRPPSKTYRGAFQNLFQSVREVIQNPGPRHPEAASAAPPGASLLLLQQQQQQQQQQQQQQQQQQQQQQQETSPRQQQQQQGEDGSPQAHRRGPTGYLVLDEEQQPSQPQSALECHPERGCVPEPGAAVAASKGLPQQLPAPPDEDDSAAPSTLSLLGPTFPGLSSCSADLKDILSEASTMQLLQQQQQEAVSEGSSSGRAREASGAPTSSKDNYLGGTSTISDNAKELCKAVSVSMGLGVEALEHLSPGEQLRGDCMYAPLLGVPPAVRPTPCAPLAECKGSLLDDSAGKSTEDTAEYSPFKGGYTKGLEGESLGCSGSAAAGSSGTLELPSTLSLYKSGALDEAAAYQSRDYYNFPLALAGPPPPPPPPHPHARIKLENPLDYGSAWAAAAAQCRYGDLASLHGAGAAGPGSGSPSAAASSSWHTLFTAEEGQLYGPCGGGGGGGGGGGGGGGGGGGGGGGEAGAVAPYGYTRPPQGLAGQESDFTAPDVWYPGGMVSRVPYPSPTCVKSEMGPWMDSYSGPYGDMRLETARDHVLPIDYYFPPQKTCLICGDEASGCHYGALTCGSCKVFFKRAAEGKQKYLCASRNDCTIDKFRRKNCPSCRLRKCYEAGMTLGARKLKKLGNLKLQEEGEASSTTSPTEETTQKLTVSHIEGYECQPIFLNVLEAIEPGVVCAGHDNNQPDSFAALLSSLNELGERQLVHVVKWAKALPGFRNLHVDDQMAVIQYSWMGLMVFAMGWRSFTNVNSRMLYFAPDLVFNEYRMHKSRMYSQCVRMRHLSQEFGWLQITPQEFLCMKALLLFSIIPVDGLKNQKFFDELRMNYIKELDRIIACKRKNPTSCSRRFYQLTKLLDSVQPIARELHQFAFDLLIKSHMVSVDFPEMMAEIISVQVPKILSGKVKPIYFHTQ
Nature of the experiment: cell-based. The format is cell-based. The source says:
We generated a LNCaP cell line stably expressing luciferase controlled by androgen response elements (ARE-luciferase).
Cell Culture and Treatments. The LNCaP cell line were obtained from ATCC, cultured in RPMI1640 (Corning) supplemented with 10% heat-inactivated GemCell bovine serum (Gemini Bio-Products) and Penicillin-Streptomycin (Gemini Bio-Products). Cell lines stably expressing ARE-luciferase (LNCaP-luc) was generated using Cignal Lenti AR Reporter (Qiagen) and was continuously cultured with 500 ng/mL Puromycin (Gibco) for positive selection. Cells were maintained at 37° C. in a humidified incubator with 5% carbon dioxide. All cell lines were authenticated using NIST approved short tandem repeat (STR) DNA profiling performed by the University of Arizona Genetics Core and routinely tested negative for mycoplasma.
Luciferase assay. LNCaP-luc cells were seeded in clear flat bottom white polystyrene 96-well plates (Corning) at a density of 12,000 cells/well. […] Dose-response curves were fit using the delta method and t-distribution (n=1). Compounds are tested up to 10 μM.

The target of experiment [2] is T2, AR (Rattus norvegicus, UniProt P15207).
T2 construct: purchased Thermo Fisher Scientific
T2 sequence (P15207 646-902 limits assumed): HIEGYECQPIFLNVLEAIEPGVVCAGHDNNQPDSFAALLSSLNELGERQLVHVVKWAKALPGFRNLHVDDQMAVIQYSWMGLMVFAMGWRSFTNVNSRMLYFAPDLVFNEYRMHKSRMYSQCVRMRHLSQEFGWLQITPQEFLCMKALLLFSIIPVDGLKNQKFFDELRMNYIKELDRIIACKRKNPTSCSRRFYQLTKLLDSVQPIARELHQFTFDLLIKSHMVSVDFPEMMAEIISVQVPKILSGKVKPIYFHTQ
The experiment can be described thus: AR binding, PolarScreen AR Competitor Assay (fluorescence polarization). The procedure: AR Binding. Ligand binding was analyzed using the PolarScreen AR Competitor Assay Kit, Green, according to the manufacturer's instructions (Thermo Fisher Scientific). Fluorescence polarization was measured after a 4-h incubation using an EnVision 2103 Multilabel Plate Reader (PerkinElmer).

Experiment [3] relates to VCaP cells. The experiment can be described thus: VCaP viability assay (CellTiter-Glo). Format: cell-based. Conditions: Homo sapiens, VCaP. The procedure:
PC3 and VCaP cell lines were obtained from ATCC and cultured as recommended. Generation and culture of PC3 GFP-AR cells were described previously (14). ARE-luciferase cells were generated using Cignal Lenti AR Reporter (Qiagen). Cell lines were authenticated using NIST-approved short tandem repeat DNA profiling and tested negative for mycoplasma. Drug treatments were conducted after overnight culture in phenol red-free media supplemented with charcoal:dextran stripped FBS.
Luminometer Assays. For ARE-luciferase, luciferase substrate was added to lysed cells after 24-h treatment. For viability, cells were lysed with CellTiter-Glo 3D Cell Viability Assay (Promega) after 6 d of treatment. Measurements were performed in 96-well plates (Corning) using a GloMax 96 Microplate Luminometer (Promega).

Broadly, the EC50 is the midpoint of the concentration-response curve. Low values mean greater potency, high ones weaker potency. One may read the Emax as the size of the effect at its maximum, as opposed to the concentration needed. One may read the IC50 as the concentration needed to halve the response being measured.

Take `CC(=O)c1cc(C(=O)N[C@@H]2C[C@@]3(C)O[C@]2(C)[C@@H]2C(=O)N(c4ccc(C#N)c(C(F)(F)F)c4)C(=O)[C@@H]23)n[nH]1` [EITM-1703, 5-acetyl-N-((3aR,4R,5R,7R,7aS)-2-(4-cyano-3-(trifluoromethyl)phenyl)-4,7-dimethyl-1,3-dioxooctahydro-1H-4,7-epoxyisoindol-5-yl)-1H-pyrazole-3-carboxamide]: in experiment [1], the “AR agonism / antagonism in LNCaP ARE-luciferase, in words” value (shortened to “AR agonism / antagonism”) is “robust antagonistic activities without notable agonism” and the concentration giving a half-maximal response (EC50) is 1700 nM. The molecule further came in with an Emax in experiment [1] (LNCaP) of 20%.

Consider `CC(=O)N1CCC(C(=O)N[C@@H]2C[C@@]3(C)O[C@]2(C)[C@@H]2C(=O)N(c4ccc(C#N)c(C(F)(F)F)c4)C(=O)[C@@H]23)CC1` [EITM-1717, 1-acetyl-N-((3aR,4R,5R,7R,7aS)-2-(4-cyano-3-(trifluoromethyl)phenyl)-4,7-dimethyl-1,3-dioxooctahydro-1H-4,7-epoxyisoindol-5-yl)piperidine-4-carboxamide], for which the “binding to AR in vitro, in words” value in experiment [2] was “did not bind AR”. Besides, in experiment [1], the ED50 entry is “No binding” and the Emax entry is reported as “No binding”.

Regarding `C[C@]12O[C@](C)(C[C@H]1NC(=O)c1cc(-c3cccs3)[nH]n1)[C@H]1C(=O)N(c3ccc(C#N)c(C(F)(F)F)c3)C(=O)[C@H]12` [EITM-1710, N-((3aR,4R,5R,7R,7aS)-2-(4-cyano-3-(trifluoromethyl)phenyl)-4,7-dimethyl-1,3-dioxooctahydro-1H-4,7-epoxyisoindol-5-yl)-5-(thiophen-2-yl)-1H-pyrazole-3-carboxamide], the “binding to AR in vitro, in words” value in experiment [2] is listed as “appeared to accommodate”. The same molecule had an EC50 in experiment [1] of 2430 nM. Also, the Emax in experiment [1] (LNCaP) came to 8%.

On to `C[C@]12O[C@](C)(C[C@H]1n1cc(CCO)nn1)[C@H]1C(=O)N(c3ccc(C#N)c(C(F)(F)F)c3)C(=O)[C@H]12` [EITM-1706, 4-((3aR,4R,5R,7R,7 aS)-5-(4-(2-hydroxyethyl)-1H-1,2,3-triazol-1-yl)-4,7-dimethyl-1,3-dioxooctahydro-2H-4,7-epoxyisoindol-2-yl)-2-(trifluoromethyl)benzonitrile], for which, in experiment [2], the “binding to AR in vitro, in words” value was “did not bind to AR”. Besides, in experiment [1], the ED50 result is on record as “No binding” and the Emax result is “No binding”.

With `CCS(=O)(=O)Nc1ccc2c(c1)C(=O)N(c1ccc(C#N)c(C(F)(F)F)c1)C2=O` [EITM-1708, N-(2-(4-cyano-3-(trifluoromethyl)phenyl)-1,3-dioxoisoindolin-5-yl)ethanesulfonamide], the “binding to AR in vitro, in words” value in experiment [2] is reported as “did not bind to AR”. In experiment [1], the ED50 entry is “No binding” and the Emax result was “No binding”.

Turning to `Cc1c(N2C(=O)[C@@H]3[C@H](C2=O)[C@@]2(C)C[C@@H](NC(=O)c4cc(C(C)O)[nH]n4)[C@]3(C)O2)ccc(C#N)c1C(F)(F)F` (stereo partly drawn) [EITM-1712, N-((3aR,4R,5R,7R,7 aS)-2-(4-cyano-2-methyl-3-(trifluoromethyl)phenyl)-4,7-dimethyl-1,3-dioxooctahydro-1H-4,7-epoxyisoindol-5-yl)-5-(1-hydroxyethyl)-1H-pyrazole-3-carboxamide], in experiment [1], the “AR agonism / antagonism” value is “pure antagonists” and a half-maximal effect (EC50) was put at 2130 nM. Besides, the Emax in experiment [1] (LNCaP) was 38%.

Consider `CCS(=O)(=O)N[C@@H]1C[C@@]2(C)O[C@]1(C)[C@@H]1C(=O)N(c3ccc(C#N)c(C(F)(F)F)c3F)C(=O)[C@@H]12` [EITM-1705, N-((3aR,4R,5R,7R,7aS)-2-(4-cyano-2-fluoro-3-(trifluoromethyl)phenyl)-4,7-dimethyl-1,3-dioxooctahydro-1H-4,7-epoxyisoindol-5-yl)ethanesulfonamide], for which, in experiment [1], the “AR agonism / antagonism” value is reported as “displayed notable AR agonism”; the ED50 result was “agonist”; the Emax result is “agonist”.

The molecule `C[C@]12O[C@](C)(C[C@H]1NC(=O)c1c[nH]c3ccccc13)[C@H]1C(=O)N(c3ccc(C#N)c(C(F)(F)F)c3)C(=O)[C@H]12` [(R)-1720] displayed an IC50 in experiment [3] of 160 nM.

For the molecule `CC(O)c1cc(C(=O)N[C@@H]2C[C@@]3(C)O[C@]2(C)[C@@H]2C(=O)N(c4ccc(C#N)c(C(F)(F)F)c4)C(=O)[C@@H]23)n[nH]1` (stereo partly drawn) [EITM-1704, N-((3aR,4R,5R,7R,7aS)-2-(4-cyano-3-(trifluoromethyl)phenyl)-4,7-dimethyl-1,3-dioxooctahydro-1H-4,7-epoxyisoindol-5-yl)-5-(1-hydroxyethyl)-1H-pyrazole-3-carboxamide], in experiment [1], the “AR agonism / antagonism” value is recorded as “robust antagonistic activities without notable agonism” and the EC50 stood at 3700 nM. This molecule gave an Emax in experiment [1] (LNCaP) of 11%.

Consider `C[C@]12O[C@](C)(C[C@H]1NC(=O)c1n[nH]c3ccccc13)[C@H]1C(=O)N(c3ccc(C#N)c(C(F)(F)F)c3)C(=O)[C@H]12` [EITM-1709, N-((3aR,4R,5R,7R,7 aS)-2-(4-cyano-3-(trifluoromethyl)phenyl)-4,7-dimethyl-1,3-dioxooctahydro-1H-4,7-epoxyisoindol-5-yl)-1H-indazole-3-carboxamide], for which the “binding to AR in vitro, in words” value in experiment [2] is “appeared to accommodate”. The molecule further gave an EC50 in experiment [1] of 328 nM. Besides, the Emax in experiment [1] (LNCaP) worked out at 1%.

Regarding `C[C@]12O[C@](C)(C[C@H]1NC(=O)c1cc(-c3ccco3)[nH]n1)[C@H]1C(=O)N(c3ccc(C#N)c(C(F)(F)F)c3)C(=O)[C@H]12` [EITM-1711, N-((3aR,4R,5R,7R,7 aS)-2-(4-cyano-3-(trifluoromethyl)phenyl)-4,7-dimethyl-1,3-dioxooctahydro-1H-4,7-epoxyisoindol-5-yl)-5-(furan-2-yl)-1H-pyrazole-3-carboxamide], the “binding to AR in vitro, in words” value in experiment [2] was “appeared to accommodate”. For the same molecule, the EC50 in experiment [1] came to 535 nM. For the same molecule, the maximal effect (Emax) in experiment [1] (LNCaP) stood at 1%.

Regarding “3-(4-acetylpiperazin-1-yl)-N-((3aR,4R,5R,7R,7aS)-2-(4-cyano-3-(trifluoromethyl)phenyl)-4,7-dimethyl-1,3-dioxooctahydro-1H-4,7-epoxyisoindol-5-yl)propenamide [EITM-1716]”, in experiment [2], the “binding to AR in vitro, in words” value was “did not bind AR”. For the same molecule, the IC50 in experiment [2] (printed inside the ED50 cell of Table 2, read-out: IC50 (No binding)) is greater than 5000 nM. Moreover, in experiment [1], the ED50 entry is listed as “No binding (IC50 > 5 μM)” and the Emax result is given as “No binding”.
